The values below come from patent publication US12121552B2, “Pseudomonas chlororaphis species and its use in the control of fish diseases caused by bacteria and fungi” (T3 Bioscience, Inc., priority 2022, dated 2024).

Values after ≈ are worked out from the molar mass of the structure shown.

Test in all cases: MIC/MLC broth dilution assay against fish pathogens
Holding throughout (assay type): cell-based
For orientation: Dilution methods test growth across graded concentrations, often in twofold steps.

One test deals with Flavobacterium columnare. The note with it: TYES/20° C./2 days, read-out: Minimum Inhibitory Concentration.
The test system of a further test is Streptococcus iniae. The note with it: (TSAY/TSBY)/28° C./48 h; for MIC: Streptococcus iniae, read-out: Minimum Inhibitory Concentration.
For the next test, the system named is Tenacibaculum maritimum. The note with it: (MA/MB)/15° C./8 days.
The subject of test [1] is Renibacterium salmoninarum. The note with it: KDM-2/15° C./14 days, read-out: Minimum Inhibitory Concentration.
For the next test, the system named is Piscirickettsia salmonis. The note with it: L15/15° C./21 days, read-out: Minimum Inhibitory Concentration.
In another test the test system is Streptococcus agalactiae. The note with it: (TSAY/TSBY)/28° C./48 h; for MIC: Streptococcus agalactiae, read-out: Minimum Inhibitory Concentration.
A further test deals with Aeromonas salmonicida. The note with it: (TSA/TSB)/20° C./24 h, read-out: Minimum Inhibitory Concentration.
A further test deals with Vibrio parahaemolyticus. The note with it: (TSA2/TSB2)/37° C./24 h, read-out: Minimum Inhibitory Concentration.

As to `CCCCCCc1c(O)cc(CCCCC)cc1O` (single isomer, unassigned) [Peak 2], the MIC with Flavobacterium columnare was determined as 0.5 µg/mL (≈ 1.89 µM); in the test on Streptococcus iniae, 0.39 µg/mL (≈ 1.47 µM); in the test on Tenacibaculum maritimum (Tenacibaculum maritimum, read-out: Minimum Inhibitory Concentration), 3.13 µg/mL (≈ 11.8 µM); in test [1], 50 µg/mL (≈ 189 µM); with Piscirickettsia salmonis it was 12.5 µg/mL (≈ 47.3 µM); in the test with Streptococcus agalactiae, 6.25 µg/mL (≈ 23.6 µM). The “Minimum Lethal Concentration” value with Tenacibaculum maritimum stood at 200 µg/mL.

As to `CCCCCCCc1cc(O)c(CCCCCC)c(O)c1` (single isomer, unassigned) [Peak 3], the MIC came out at 0.39 µg/mL (≈ 1.33 µM) in the test with Flavobacterium columnare; 0.39 µg/mL (≈ 1.33 µM) in the test with Streptococcus iniae; 100 µg/mL (≈ 342 µM) in the test on Aeromonas salmonicida; 1.56 µg/mL (≈ 5.33 µM) in the test on Vibrio parahaemolyticus; 50 µg/mL (≈ 171 µM) in test [1]; 12.5 µg/mL (≈ 42.7 µM) with Piscirickettsia salmonis. In the test on Streptococcus agalactiae, the MIC was 6.25 µg/mL (≈ 21.4 µM). Moreover, the “Minimum Lethal Concentration” value worked out at 25 µg/mL in the test on Streptococcus iniae and 50 µg/mL with Streptococcus agalactiae.
